The test system of this assay is human Cav3.1 Cav3.2 or Cav3.3 channel. Kind of assay: In vitro assay T channel (FLIPR calcium fluorescence). Format: cell-based. The following applies: HEK293 cells expressing human Cav3.1, Cav3.2 or Cav3.3; 10 mM Ca2+-induced fluo-4 fluorescence; determined up to 10 μM; read-out: T channel antagonistic activity IC50. On the procedure:
The T channel antagonistic activity (IC50 values) of the compounds of formula (I) is determined in accordance with the following experimental method and data are shown in Table 1.
Human embryonic kidney (HEK293) cells expressing the human Cav3.1 Cav3.2 or Cav3.3 channel, respectively, are grown in culture medium (DMEM containing 10% heat-inactivated fetal calf serum (FCS), 100 U/ml penicillin, 100 μg/ml streptomycin and 1 mg/ml G418). The cells are seeded at 20.000 cells/well into 384-well black clear bottom sterile plates (poly-L-lysine-coated, Becton Dickinson). The seeded plates are incubated overnight at 37° C. in 5% CO2. The Ca^2+ solution is prepared as 100 mM stock solution in 100 mM tetraethylammoniumchloride (TEA-chloride), 50 mM HEPES, 2.5 mM CaCl2, 5 mM KCl, 1 mM MgCl2, adjusted to pH 7.2 with TEA-hydroxide, for use in the assay at a final concentration of 10 mM. Antagonists are prepared as 10 mM stock solutions in DMSO, then diluted in 384 w plates first in DMSO, then in 100 mM TEA-chloride, 50 mM HEPES, 2.5 mM CaCl2, 5 mM KCl, 1 mM MgCl2, adjusted to pH 7.2 with TEA-hydroxide, to obtain 9× stocks. On the day of the assay, 25 μl of staining buffer (HBSS containing 20 mM HEPES, 0.375 g/l NaHCO3 and 3 μM of the fluorescent calcium indicator fluo-4 AM (1 mM stock solution in DMSO, containing 10% pluronic) is added to each well of the seeded plate. The 384-well cell-plates are incubated for 60 min at 37° C. in 5% CO2 followed by washing with 2×50 μl per well using HBSS containing 0.1% BSA, 20 mM HEPES, 0.375 g/l NaHCO3, leaving 50 […] of this buffer for equilibration at room temperature (30-60 min). Within the Fluorescent Imaging Plate Reader (FLIPR, Molecular Devices), antagonists are added to the plate in a volume of 6.25 μl/well, incubated for 3 min, and finally 6.25 […] of Ca^2+ solution is added. Fluorescence is measured for each well at 2 second intervals for 8 minutes, and the area under the curve of each fluorescence peak is compared to the area of the fluorescence peak induced by 10 mM Ca^2+ with vehicle in place of antagonist. For each antagonist, the IC50 value (the concentration (in nM) of compound needed to inhibit 50% of the Ca^2+-induced fluorescence response) up to 10 μM is determined.
For “rac-(1R*,3R*,4R*)-1,2,3,4,9,10-Hexahydro-3-hydroxy-3-{N-methyl-N-(3-benzimidazol-2-ylpropyl)aminoethyl}-1,4-ethanophenanthrene [Example 18]”, the half-maximal inhibitory concentration (IC50) is 1.34 µM.
The result for `CC(C)C(=O)O[C@@]1(CCN(C)CCCc2nc3ccccc3[nH]2)C[C@H]2CC[C@@H]1C=C2c1nccs1` (relative stereo) [Example 24A, rac-Isobutyric acid (1R*,2R*,4R*)-2-(2-{[3-(1H-benzoimidazol-2-yl)-propyl]-methyl-amino}-ethyl)-5-thiazol-2-yl-bicyclo[2.2.2]oct-5-en-2-yl ester] reads 2.75 µM; that for `CN(CCCc1nc2cc(Cl)c(Cl)cc2[nH]1)CC[C@]1(OC(=O)C2CC2)C[C@H]2CC[C@@H]1C=C2c1ccccc1` (relative stereo) [Example 27B, rac-Cyclopropanecarboxylic acid (1R*,2R*,4R*)-2-(2-{[3-(5,6-dichloro-1H-benzoimidazol-2-yl)-propyl]-methyl-amino}-ethyl)-5-phenyl-bicyclo[2.2.2]oct-5-en-2-yl ester], 4.73 µM.
The result for `Cc1ccccc1C1=C[C@H]2CC[C@@H]1C[C@@]2(O)CCN(C)CCCc1nc2ccccc2[nH]1` (relative stereo) [Example 4, rac-(1R*,2R*,4R*)-2-(2-{[3-(1H-Benzoimidazol-2-yl)-propyl]-methyl-amino}-ethyl)-5-(2-methyl-phenyl)-bicyclo[2.2.2]oct-5-en-2-ol] reads 3.61 µM; that for `COc1ccccc1C1=CC2CCC1CC2(O)CCN(C)CCCc1nc2ccccc2[nH]1` (racemic) [Example 23, rac-(1R*,2R*,4R*)-2-(2-{[3-(1H-Benzoimidazol-2-yl)-propyl]-methyl-amino}-ethyl)-5-(2-methoxy-phenyl)-2-yl-bicyclo[2.2.2]oct-5-en-2-ol], 3.31 µM.
The result for `CCOc1ccc(CCN(CC)CC[C@]2(OC(=O)C(C)C)C[C@H]3CC[C@@H]2C=C3c2ccccc2)cc1OCC` (relative stereo) [Example 38A, rac-Isobutyric acid (1R*,2R*,4R*)-2-(2-{[2-(3,4-diethoxy-phenyl)-ethyl]-ethyl-amino}-ethyl)-5-phenyl-bicyclo[2.2.2]oct-5-en-2-yl ester] reads 2.51 µM.
Regarding `CN(CCCc1nc2ccccc2[nH]1)CC[C@]1(O)C[C@H]2CC[C@@H]1C[C@@]21OCc2ccccc21` (relative stereo) [Example 79, rac-(1R*,2R*,4R*,5R*)-5-(2-{[3-(1H-Benzoimidazol-2-yl)-propyl]-methyl-amino}-ethyl)-3′H-spiro(bicyclo[2.2.2]octane-2,1′-isobenzofuran)-5-ol], the half-maximal inhibitory concentration (IC50) was 2.92 µM.
Then `CCOc1ccc(CCCN(C)CC[C@]2(OC(=O)C(C)C)C[C@H]3CC[C@@H]2C=C3c2ccccc2)cc1OCC` (relative stereo) [Example 40A, rac-Isobutyric acid (1R*,2R*,4R*)-2-(2-{[3-(3,4-diethoxy-phenyl)-propyl]-methyl-amino}-ethyl)-5-phenyl-bicyclo[2.2.2]oct-5-en-2-yl ester], with 8.93 µM; and `CC(C)C(=O)O[C@@]1(CCN(C)CCCNC(=O)C(C)(C)C)C[C@H]2CC[C@@H]1C=C2c1ccccc1` (relative stereo) [Example 45A, rac-Isobutyric acid (1R*,2R*,4R*)-2-(2-{[3-(2,2-dimethyl-propionylamino)-propyl]-methyl-amino}-ethyl)-5-phenyl-bicyclo[2.2.2]oct-5-en-2-yl ester], with 1.7 µM.
The result for `Cc1cccc(C2=C[C@H]3CC[C@@H]2C[C@]3(CCN(C)CCCc2nc3ccccc3[nH]2)OC(=O)C(C)C)c1` (relative stereo) [Example 5A, rac-Isobutyric acid (1R*,2R*,4R*)-2-(2-{[3-(1H-benzoimidazol-2-yl)-propyl]-methyl-amino}-ethyl)-5-(3-methyl-phenyl)-bicyclo[2.2.2]oct-5-en-2-yl ester] reads 3.45 µM; that for `CCOc1cccc2nc(CCCN(C)CC[C@]3(OC(=O)C(C)C)C[C@H]4CC[C@@H]3C=C4c3ccccc3)[nH]c12` (relative stereo) [Example 31A, rac-Isobutyric acid (1R*,2R*,4R*)-2-(2-{[3-(7-ethoxy-1H-benzoimidazol-2-yl)-propyl]-methyl-amino}-ethyl)-5-phenyl-bicyclo[2.2.2]oct-5-en-2-yl ester], 2.6 µM.
For the compound `COc1cccc2c1nc(CCCN(C)CC[C@]1(OC(=O)C(C)C)C[C@H]3CC[C@@H]1C=C3c1ccccc1)n2C` (relative stereo) [Example 37A, rac-Isobutyric acid (1R*,2R*,4R*)-2-(2-{[3-(4-methoxy-1-methyl-1H-benzoimidazol-2-yl)-propyl]-methyl-amino}-ethyl)-5-phenyl-bicyclo[2.2.2]oct-5-en-2-yl ester], the IC50 is 0.935 µM.
Then `CN(CCCc1nc2ccccc2[nH]1)CC[C@]1(O)C[C@H]2CC[C@@H]1C=C2c1cccs1` (relative stereo) [Example 21, rac-(1R*,2R*,4R*)-2-(2-{[3-(1H-Benzoimidazol-2-yl)-propyl]-methyl-amino}-ethyl)-5-thiophen-2-yl-bicyclo[2.2.2]oct-5-en-2-ol], with 3.47 µM.
Then `COc1cc(OC)c2nc(CCCN(C)CC[C@]3(OC(=O)C(C)C)C[C@H]4CC[C@@H]3C=C4c3ccccc3)[nH]c2c1` (relative stereo) [Example 59A, rac-Isobutyric acid (1R*,2R*,4R*)-2-(2-{[3-(4,6-dimethoxy-1H-benzoimidazol-2-yl)-propyl]-methyl-amino}-ethyl)-5-phenyl-bicyclo[2.2.2]oct-5-en-2-yl ester], with 0.952 µM; and `Cc1cccc(C)c1C1=C[C@H]2CC[C@@H]1C[C@@]2(O)CCN(C)CCCc1nc2ccccc2[nH]1` (relative stereo) [Example 3, rac-(1R*,2R*,4R*)-2-(2-{[3-(1H-Benzoimidazol-2-yl)-propyl]-methyl-amino}-ethyl)-5-(2,6-dimethyl-phenyl)-bicyclo[2.2.2]oct-5-en-2-ol], with 6.63 µM; and `COc1cccc2nc(CCN(C)CC[C@]3(O)C[C@H]4CC[C@@H]3C=C4c3ccccc3)[nH]c12` (relative stereo) [Example 32, rac-(1R*,2R*,4R*)-2-(2-{[2-(7-Methoxy-1H-benzoimidazol-2-yl)-ethyl]-methyl-amino}-ethyl)-5-phenyl-bicyclo[2.2.2]oct-5-en-2-ol], with 1.48 µM.
The result for `COc1ccc(C)c2nc(CCCN(C)CC[C@]3(OC(=O)C(C)C)C[C@H]4CCC[C@@H]3C=C4c3ccccc3)[nH]c12` (relative stereo) [Example 66A, rac-Isobutyric acid (1R*,5R*,6R*)-6-(2-{[3-(7-methoxy-4-methyl-1H-benzoimidazol-2-yl)-propyl]-methyl-amino}-ethyl)-8-phenyl-bicyclo[3.2.2]non-8-en-6-yl ester] reads 0.68 µM; that for `CN(CCCc1nc2ccccc2[nH]1)CC[C@]1(O)C[C@H]2CC[C@@H]1C=C2c1cccc(F)c1` (relative stereo) [Example 7, rac-(1R*,2R*,4R*)-2-(2-{[3-(1H-Benzoimidazol-2-yl)-propyl]-methyl-amino}-ethyl)-5-(3-fluoro-phenyl)-bicyclo[2.2.2]oct-5-en-2-ol], 4.4 µM; that for `CN(CCCc1nc2ccccc2[nH]1)CC[C@@]1(O)C[C@@H]2CC[C@H]1CN2c1ccccc1` [Example 74, (1S,4S,5R)-5-(2-{[3-(1H-Benzoimidazol-2-yl)-propyl]-methyl-amino}-ethyl)-2-phenyl-2-aza-bicyclo[2.2.2]octan-5-ol], 6.07 µM.
Regarding `CN(CCCc1nc2ccccc2[nH]1)CCC1(O)CC2CCC1C=C2c1ccccc1` (single isomer, unassigned) [Example 11, (1R,2R,4R)-2-(2-{[3-(1H-Benzoimidazol-2-yl)-propyl]-methyl-amino}-ethyl)-5-phenyl-bicyclo[2.2.2]oct-5-en-2-ol or (1S,2S,4S)-2-(2-{[3-(1H-benzoimidazol-2-yl)-propyl]-methyl-amino}-ethyl)-5-phenyl-bicyclo[2.2.2]oct-5-en-2-ol], the IC50 is more than 10 µM.
The result for `CC(C)C(=O)O[C@@]1(CCN(C)CCCc2nc3c(OC(F)(F)F)cccc3[nH]2)C[C@H]2CC[C@@H]1C=C2c1ccccc1` (relative stereo) [Example 68A, rac-Isobutyric acid (1R*,2R*,4R*)-2-(2-{methyl-[3-(4-trifluoromethoxy-1H-benzoimidazol-2-yl)-propyl]-amino}-ethyl)-5-phenyl-bicyclo[2.2.2]oct-5-en-2-yl ester] reads 0.839 µM.

One may read the IC50 as the midpoint of a concentration-inhibition curve.

The record behind these values is patent publication US8202885B2, “Bridged six-membered ring compounds” (Actelion Pharmaceuticals Ltd., priority 2007, dated 2012).
